Measurements: patent US5516887A, “Luteinizing hormone releasing hormone antagonist peptides” (Deghenghi; Romano, priority 1994, dated 1996)
Non-standard residues stand in square brackets, D forms with d. *: point of attachment. dPhe(4-Cl) = N[C@H](Cc1ccc(Cl)cc1)C(=O)O; d2Nal = N[C@H](Cc1ccc2ccccc2c1)C(=O)O; d3Pal = N[C@H](Cc1cccnc1)C(=O)O; Carbamoyl = NC(=O)*; iPr = CC(C)*

Experiments:
plasma testosterone = assay: Suppression of plasma testosterone in rats after i.m. injection; assay type: in vivo; settings: 300 μg/kg i.m.
From the text: The effect of an LHRH antagonist peptide of Example 1 of the present invention was compared to the effect of "Antide", cf. A. Ljungqvist et al., Biochem. Biophys. Res. Comm., 148, 849-858 (1987)., an LHRH antagonist of the prior art. Both LHRH antagonists were intermuscularly injected into 6 rats at a dosage of 300 mcg/kg.

[1] = assay type: physicochemical
From the text: An aqueous solution of the peptide of Example 1 was mixed with an aqueous solution of sodium pamoate.

rats = assay: Test for anaphylactoid properties in rats; assay type: in vivo; settings: six rats, injected with 5 mg/kg, observed over a 24 hour period
Protocol: Six rats were utilized to test the LHRH antagonist peptide of Example 1 of the present invention for anaphylactoid properties. Each of the six rats was injected with 5 mg/kg of the test peptide.

Substance: Antide [reference compound]
- plasma testosterone, 0 hr (plasma testosterone): 3.35 ± 2.51
- plasma testosterone, 24 hr (plasma testosterone; 24 hr): 0.78 ± 0.37
- plasma testosterone, 48 hr (plasma testosterone; 48 hr): 1.96 ± 0.95

Substance: Example 1: LHRH antagonist peptide SEQ ID NO.: 1: N-acetyl-D-3-(2-naphthyl)-Ala1, D-3-(4-chlorophenyl)-alanine2, D-3(3-pyridyl)-Ala3, D-6-carbamoyl lysine6, Nε-isopropyl-Lys8, D-Ala-NH2 at 10 (Ac-[d2Nal][dPhe(4-Cl)][d3Pal]SY[dK](Carbamoyl)LK(iPr)P[dA]-NH2)
- solubility in water [1]: freely soluble in water
- plasma testosterone, 0 hr (plasma testosterone): 5.46 ± 3.32
- effectiveness relative to Antide at 24 hour suppression of plasma testosterone (plasma testosterone; 24 hr): more than about ten times as effective as Antide
- plasma testosterone, 24 hr (plasma testosterone; 24 hr): 0.067 ± 0.030
- effectiveness relative to Antide at 48 hours, suppression of plasma testosterone (plasma testosterone; 48 hr): more than twice as effective as Antide
- plasma testosterone, 48 hr (plasma testosterone; 48 hr): 0.84 ± 0.28
- mortality or other signs of anaphylactoid reactions (rats): No mortality or other signs of anaphylactoid reactions were observed

Substance: Example 2: LHRH antagonist peptide SEQ ID NO.: 2: as SEQ ID NO.: 1 at positions 1, 2, 3, 6, 8; position 9 is Pro-NHCH2 CH3 (Ac-[d2Nal][dPhe(4-Cl)][d3Pal]SY[dK](Carbamoyl)LK(iPr)P-NHEt; SMILES CCNC(=O)[C@@H]1CCCN1C(=O)[C@H](CCCCNC(C)C)NC(=O)[C@H](CC(C)C)NC(=O)[C@@H](CCCCNC(N)=O)NC(=O)[C@H](Cc1ccc(O)cc1)NC(=O)[C@H](CO)NC(=O)[C@@H](Cc1cccnc1)NC(=O)[C@@H](Cc1ccc(Cl)cc1)NC(=O)[C@@H](Cc1ccc2ccccc2c1)NC(C)=O)
- solubility in water [1]: water soluble
